Measured values reported in PMC5949348, “The Metabolism of Separase Inhibitor Sepin-1 in Human, Mouse, and Rat Liver Microsomes” (Frontiers in Pharmacology, 2018).
Values joined by “and” are separate entries in the source; they are usually repeats but may differ in a detail not shown here. Equal values may be shown once. Read-outs that look alike come from different tables or passages of the source.

Assays:
[1] = test system: breast cancer xenografts; design: method as in Zhang et al., 2014; details: mice; ref Zhang et al., 2014; cited from earlier work
[2] = molecular target: T1, CYP2C19 (Homo sapiens, UniProt P33261); experiment: Inhibition of sepin-1 on CYP2C19; assay type: in vitro ADME
T1 construct: purchased XenoTech
Protocol: (§1) Incubations were performed in 1× PBS (pH 7.4), containing 0, 0.156, 0.312, 0.625, 1.25, 2.5, 5, 10, 20, or 40 μM sepin-1, 2 pmol of each cDNA-expressed P450 enzymes, and corresponding substrates: CYP1A2 (phenacetin, 40 μM, 20 min incubation), 2B6 (efavirenz, 20 μM, 30 min), 2C8 (paclitaxel, 10 μM, 30 min), 2C9 (diclofenac, 5 μM, 15 min), 2C19 [(S)-mephenytoin, 40 μM, 20 min], 2D6 (dextromethorphan, 5 μM, 15 min), and CYP3A4 (midazolam, 3 μM, 10 min) in a final volume of 190 μl. After 5 min of pre-incubation at 37°C, the reaction was initiated by adding 10 μl of 20 mM NADPH (final concentration 1.0 mM) and continued for a specific time as presented above with gentle shaking. Incubations without sepin-1 were used as controls. Reactions were terminated by the addition of 200 μl of ice-cold methanol, vortexing for 30 s, and centrifuging at 15,000 × g for 15 min. Each supernatant was transferred to an auto sampler vial and 5.0 μl was injected on to UHPLC coupled with a QQQMS system for the specific metabolite analysis. A MRM method was used. Incubations were conducted in duplicate. Positive controls were performed by using a known specific inhibitor for each of the isoform assays (Supplementary Table S1). […]

[3] = test system: separase; design: method as in Zhang et al., 2014; details: ref Zhang et al., 2014; cited from earlier work
[4] = molecular target: T2, CYP3A4 (Homo sapiens, UniProt P08684); experiment: Inhibition of sepin-1 on CYP3A4; assay type: in vitro ADME
T2 construct: purchased XenoTech
Protocol: as §1

[5] = molecular target: T3, CYP1A2 (Homo sapiens, UniProt P05177); experiment: Inhibition of sepin-1 on CYP1A2; assay type: in vitro ADME
T3 construct: purchased XenoTech
T3 sequence (P05177 1-516): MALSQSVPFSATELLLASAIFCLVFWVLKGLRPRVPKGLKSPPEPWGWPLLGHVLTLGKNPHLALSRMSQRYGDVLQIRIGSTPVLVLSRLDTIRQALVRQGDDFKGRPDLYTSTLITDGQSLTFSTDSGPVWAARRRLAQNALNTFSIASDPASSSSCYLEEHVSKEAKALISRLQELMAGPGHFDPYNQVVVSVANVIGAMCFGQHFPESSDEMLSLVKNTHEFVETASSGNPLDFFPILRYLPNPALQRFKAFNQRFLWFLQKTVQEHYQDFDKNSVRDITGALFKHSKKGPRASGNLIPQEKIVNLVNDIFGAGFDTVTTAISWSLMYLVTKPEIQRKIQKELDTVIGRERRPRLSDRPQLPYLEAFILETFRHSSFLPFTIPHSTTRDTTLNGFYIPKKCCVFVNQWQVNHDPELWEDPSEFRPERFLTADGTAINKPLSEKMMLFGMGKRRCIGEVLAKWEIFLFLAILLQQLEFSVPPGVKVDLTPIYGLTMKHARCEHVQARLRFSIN
Protocol: as §1

[6] = molecular target: T4, CYP2D6 (Homo sapiens, UniProt P10635); experiment: Inhibition of sepin-1 on CYP2D6; assay type: in vitro ADME
T4 construct: purchased XenoTech
Protocol: as §1

[7] = test system: cancer cell lines including breast cancer, leukemia, and neuroblastoma; design: method as in Zhang et al., 2014; details: ref Zhang et al., 2014; cited from earlier work
[8] = molecular target: T5, CYP2B6 (Homo sapiens, UniProt P20813); experiment: Inhibition of sepin-1 on CYP2B6; assay type: in vitro ADME
T5 construct: purchased XenoTech
T5 sequence (P20813 1-491): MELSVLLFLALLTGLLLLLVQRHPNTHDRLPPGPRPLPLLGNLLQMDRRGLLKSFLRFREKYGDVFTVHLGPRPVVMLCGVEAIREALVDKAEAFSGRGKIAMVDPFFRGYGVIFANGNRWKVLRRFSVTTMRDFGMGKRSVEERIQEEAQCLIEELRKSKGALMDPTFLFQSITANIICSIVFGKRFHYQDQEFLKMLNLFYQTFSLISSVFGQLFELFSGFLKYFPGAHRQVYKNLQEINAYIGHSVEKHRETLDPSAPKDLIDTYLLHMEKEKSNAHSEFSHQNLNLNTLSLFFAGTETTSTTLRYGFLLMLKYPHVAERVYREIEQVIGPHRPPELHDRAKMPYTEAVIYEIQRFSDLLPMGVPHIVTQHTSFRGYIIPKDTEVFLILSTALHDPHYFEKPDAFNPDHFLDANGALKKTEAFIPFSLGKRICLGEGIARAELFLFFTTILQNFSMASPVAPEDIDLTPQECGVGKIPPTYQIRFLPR
Protocol: as §1

[9] = molecular target: T6, CYP2C9 (Homo sapiens, UniProt P11712); experiment: Inhibition of sepin-1 on CYP2C9; assay type: in vitro ADME
T6 construct: purchased XenoTech
Protocol: as §1

T2 sequence (P08684 whole entry): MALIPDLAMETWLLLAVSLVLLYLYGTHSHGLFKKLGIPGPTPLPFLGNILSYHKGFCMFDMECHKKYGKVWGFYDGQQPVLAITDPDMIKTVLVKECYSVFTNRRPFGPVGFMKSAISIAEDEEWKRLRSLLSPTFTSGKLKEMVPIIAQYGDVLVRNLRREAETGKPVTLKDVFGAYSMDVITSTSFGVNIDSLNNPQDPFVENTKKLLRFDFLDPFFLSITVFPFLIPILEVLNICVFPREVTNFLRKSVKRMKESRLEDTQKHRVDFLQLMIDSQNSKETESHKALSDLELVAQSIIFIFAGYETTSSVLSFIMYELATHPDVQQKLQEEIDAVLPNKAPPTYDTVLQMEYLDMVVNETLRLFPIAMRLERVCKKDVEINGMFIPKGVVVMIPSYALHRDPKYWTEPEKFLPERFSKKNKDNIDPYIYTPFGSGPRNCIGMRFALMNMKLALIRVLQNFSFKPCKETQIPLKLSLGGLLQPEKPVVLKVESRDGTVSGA
T1 sequence (P33261 whole entry): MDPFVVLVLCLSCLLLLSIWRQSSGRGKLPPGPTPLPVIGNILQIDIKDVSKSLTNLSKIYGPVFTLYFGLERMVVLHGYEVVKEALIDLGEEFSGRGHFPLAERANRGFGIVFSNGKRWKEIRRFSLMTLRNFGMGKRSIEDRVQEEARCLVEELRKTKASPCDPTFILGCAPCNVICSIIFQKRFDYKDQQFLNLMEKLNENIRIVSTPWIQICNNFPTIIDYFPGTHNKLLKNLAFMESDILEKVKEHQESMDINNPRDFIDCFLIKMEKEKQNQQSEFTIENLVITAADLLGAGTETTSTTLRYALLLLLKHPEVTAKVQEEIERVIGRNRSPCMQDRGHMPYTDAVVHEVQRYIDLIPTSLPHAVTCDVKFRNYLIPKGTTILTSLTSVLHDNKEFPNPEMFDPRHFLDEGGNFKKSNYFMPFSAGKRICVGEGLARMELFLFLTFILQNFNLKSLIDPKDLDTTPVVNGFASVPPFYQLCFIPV
T4 sequence (P10635 whole entry): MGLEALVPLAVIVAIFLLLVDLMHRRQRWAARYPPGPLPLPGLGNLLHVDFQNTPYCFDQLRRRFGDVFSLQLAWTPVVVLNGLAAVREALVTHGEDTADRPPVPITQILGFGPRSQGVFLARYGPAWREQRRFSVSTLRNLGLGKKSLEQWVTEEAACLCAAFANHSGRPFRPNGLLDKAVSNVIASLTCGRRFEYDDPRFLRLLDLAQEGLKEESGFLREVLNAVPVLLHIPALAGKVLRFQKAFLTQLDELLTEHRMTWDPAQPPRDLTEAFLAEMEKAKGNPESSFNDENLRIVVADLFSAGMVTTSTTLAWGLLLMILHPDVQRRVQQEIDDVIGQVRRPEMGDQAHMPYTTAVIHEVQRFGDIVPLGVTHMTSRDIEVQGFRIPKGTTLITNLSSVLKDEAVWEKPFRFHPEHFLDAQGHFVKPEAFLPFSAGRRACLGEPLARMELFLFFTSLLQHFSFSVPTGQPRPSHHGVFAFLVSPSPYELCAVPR
T6 sequence (P11712 whole entry): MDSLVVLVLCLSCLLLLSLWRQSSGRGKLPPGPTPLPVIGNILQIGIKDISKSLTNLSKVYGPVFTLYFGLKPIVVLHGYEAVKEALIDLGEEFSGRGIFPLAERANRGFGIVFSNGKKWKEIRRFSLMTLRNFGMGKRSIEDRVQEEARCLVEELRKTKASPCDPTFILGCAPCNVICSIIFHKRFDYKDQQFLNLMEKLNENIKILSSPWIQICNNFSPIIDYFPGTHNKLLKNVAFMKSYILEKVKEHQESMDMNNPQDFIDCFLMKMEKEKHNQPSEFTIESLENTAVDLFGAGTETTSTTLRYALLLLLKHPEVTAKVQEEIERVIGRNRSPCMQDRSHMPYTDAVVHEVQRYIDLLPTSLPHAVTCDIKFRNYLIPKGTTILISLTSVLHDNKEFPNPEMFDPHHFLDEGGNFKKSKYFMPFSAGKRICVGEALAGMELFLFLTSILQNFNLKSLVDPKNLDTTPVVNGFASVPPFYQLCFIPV

IC50 ([2]; FDA classification bands, read-out: Inhibition potency class on CYP2C19): 1 to 10 µM
IC50 ([2]; substrate (S)-mephenytoin 40 μM, 20 min, metabolite 4-O-mephenytoin, co-incubation, read-out: IC50 on CYP2C19): < 10 µM and 8.9 µM
IC50 ([4]; FDA classification bands, read-out: Inhibition potency class on CYP3A4): 1 to 10 µM
IC50 ([4]; substrate midazolam 3 μM, 10 min, metabolite 1-O-midazolam, co-incubation, read-out: IC50 on CYP3A4): < 10 µM and 8.7 µM
IC50 ([5]; FDA classification bands, read-out: Inhibition potency class on CYP1A2): 1 to 10 µM
IC50 ([5]; substrate phenacetin 40 μM, 20 min, metabolite acetaminophen, co-incubation, read-out: IC50 on CYP1A2): < 10 µM and 8.1 µM
Inhibition potency class on CYP2D6 ([6]; FDA classification bands): weak inhibition
IC50 ([6]; substrate dextromethorphan 5 μM, 15 min, O-demethylation, co-incubation): > 10 µM and 42.5 µM
Inhibition potency class on CYP2B6 ([8]; FDA classification bands): weak inhibition
IC50 ([8]; substrate efavirenz 20 μM, 30 min, metabolite 8-O-efavirenz, co-incubation): > 10 µM and 14.5 µM
Inhibition potency class on CYP2C9 ([9]; FDA classification bands): weak inhibition
IC50 ([9]; substrate diclofenac 5 μM, 15 min, metabolite 4-O-diclofenac, co-incubation): > 10 µM and 21.3 µM
SMILES: CC1(C)[N+]([O-])=c2ccc([N+](=O)[O-])cc2=[N+]1[O-] [Sepin-1, 2,2-dimethyl-5-nitro-2H-benzimidazole-1,3-dioxide]
Inhibition of breast cancer xenograft growth [1]: inhibits the growth of breast cancer xenografts in mice
Inhibition of separase activity (mode) [3]: inhibits separase activity in a non-competitive way
Inhibition of cancer cell line growth [7]: selectively inhibits the growth of cancer cell lines
